# Laboratory results published in patent US12617835B2, “Chimeric autoantibody receptor (CAAR) that binds autoantibodies targeting the central nervous system in neurological autoimmune disease” (Deutsches Zentrum für Neurodegenerative Erkrankungen e. V. …, priority 2019, dated 2026).
# Key:
# [1] = system: K562 cells expressing NR1-reactive antibodies on their surface; assay: Interferon-γ release on co-culture with K562 cells expressing surface NR1-reactive antibodies; assay type: cell-based; settings: 50,000 T-cells co-cultured 1:1 with K562 cells, 48 hours
# Procedure: 50,000 CAAR T-cells were co-cultured 1:1 with K562 cells expressing NR1-reactive or control antibodies on their surface for 48 hours.
# [2] = system: Nalm6 cells with surface-presentation of NR1 autoantibody #003-102; assay: In vivo bioluminescence imaging of Nalm6 burden in mice; settings: bioluminescence on day 9 (4 days post-treatment); preliminary data
# Procedure: Nalm6 cells with surface-presentation of NR1 autoantibody and expressing a Luciferase enzyme (e.g. firefly-Luciferase) tagged with a fluorescent protein (e.g. GFP), are injected on day 1 into mice. On day 5, therapeutic CAAR-T cells expressing a CAAR of the present invention or control T cells without CAAR expression are injected. Bioluminescence imaging is conducted regularly, for example at time points 1, 5, 8, 12, 15, 19 and 22 days, to assess therapeutic effect against the Nalm6 cells. […]
# In order to show therapeutic efficacy in an animal model in vivo, Nalm6 cells with surface-presentation of NR1 autoantibody #003-102 or #008-218 and expressing the Luciferase enzyme firefly-Luciferase (ffluc) tagged with a fluorescent protein (GFP, green fluorescent protein), were injected on day 1 into 16 mice. […] As a read-out of the assay, animal survival, target cell reduction (via in vivo bioluminescence measurements) and serum antibody levels are determined. […]
# The potential readouts for the assay relate to bioluminescence imaging quantification (for the detection of in vivo killing), quantification of anti-NR1 serum levels by ELISA (for the detection of reduction of circulating antibodies), and postmortem analysis of treated animals (in order to determine off-target toxicity). […]
# [3] = system: K562 cells expressing surface NR1-reactive antibodies; assay: Cell lysis of K562 target cells (7-AAD, flow cytometry); assay type: cell-based; settings: E:T ratios 30:1 to 1:1, 4 hours
# Procedure: For quantification of cell killing, target cells were incubated with CAAR T-cells at different Effector: Target (E:T) ratios ranging from 30:1 to 1:1 for 4 hours. Dead cells were stained by 7-AAD and analyzed by flow cytometry.
# Target K562 cells were incubated with CAAR T-cells at different Effector:Target (E:T) ratios ranging from 30:1 to 1:1.
# [4] = system: Nalm6 target cells expressing NR1-reactive antibody #003-102; assay: Luciferase-assay of specific lysis of Nalm6 target cells, with or without Dasatinib; assay type: cell-based
# Procedure: For quantification of cell killing, Nalm6 target cells expressing NR1-reactive antibody #003-102 were incubated with CAAR T-cells at different Effector:Target (E:T) ratios ranging from 1:2 to 8:1 for 18 hours. Percentage of specific lysis was determined by reduction of bioluminescence in a Luciferase-assay.
# Results are depicted in FIG. 10.
substance,measurement,setting,value
ATD-S1-S2-CAAR: T cells transduced with CAAR: CD8 leader/NMDAR ATD-S1-Linker1-S2/Linker2/CD8a TM/CD137 co-stim/CD3z signaling,release of interferon-γ,[1],massively released
same,animals with drastic reduction of Nalm6 burden,[2],5/6
same,killing of K562 cells expressing surface NR1-reactive antibodies,[3],dose-dependent killing
same,inactivation of CAAR T cells by Dasatinib,[4]; Dasatinib (safety strategy),temporarily halted
same,killing of Nalm6 target cells,"[4]; E:T ratios 1:2 to 8:1, 18 hours",dose-dependent killing
